Results taken from patent US20260207589A1, “Combination of Talazoparib and Enzalutamide in the Treatment of Metastatic Castration-Resistant Prostate Cancer” (Pfizer Inc., priority 2022, published 2026).

Legend:
[1] = tested on: patients with mCRPC with HRR gene alterations; assay: TALAPRO-2 (NCT03395197) Phase 3, Part 2, DDR/HRR-deficient cohort (Cohort 2): efficacy; format: in vivo, human
Method: In one embodiment, the increase in survival is measured by any of the following: progression free survival (PFS), radiographic PFS (rPFS), and overall survival (OS). PFS, rPFS and OS are clinically meaningful endpoints for measuring an increase in survival for patients treated with the combination of the present invention. […] OS is the length of time from either the date of diagnosis or the start of treatment for a disease, such as cancer, that patients diagnosed with the disease are still alive. In a clinical trial, measuring the PFS and OS are ways to see how well a new treatment works. For purposes of the clinical trial described here, rPFS refers to the time from the date of randomization to first objective evidence of radiographic progression assessed in soft tissue per Response Evaluation Criteria in Solid Tumors version 1.1 (RECIST 1.1) or in bone (upon subsequent confirmation) per Prostate Cancer Working Group (PCWG3) guidelines by Blinded Independent Central Review (BICR), or death, whichever occurs first. For purposes of the clinical trial described here, OS refers to the time from the date of randomization to death due to any cause.
This was an international, Phase 3, randomized, double-blind, two-part study for mCRPC patients, TALAPRO-2 (NCT03395197).
Part 2 was randomized, double-blind, and placebo-controlled and evaluated the efficacy and safety of talazoparib in combination with enzalutamide compared with placebo in combination with enzalutamide. From February 2019 to January 2022, 399 patients (169 from Cohort 1) were randomized 1:1 to receive either talazoparib or matching placebo in combination with open-label enzalutamide once daily. Randomization was stratified by prior novel hormonal therapy or taxane-based chemotherapy, e.g., abiraterone, orteronel, or docetaxel for castration-sensitive prostate cancer (yes/no) and DDR mutational status, also referred to as, homologous recombination repair gene alteration status (deficient vs. non deficient/unknown). Stratification factors were specified by the investigator, and recorded in the interactive web response system (IWRS) before randomization and used for the stratified analysis of the primary efficacy endpoint. However, as the IWRS grouped non-deficient and unknown status, a secondary stratified analysis based on homologous recombination repair gene alteration status derived from the clinical database was also performed and used to identify the non-deficient subpopulation.
Genomic screening to identify alterations in DDR genes was optional for patients in Part 1, but it was required for randomization in Part 2. Mutational status was determined by testing for the presence of mutations in defined DDR genes likely to sensitize to PARP inhibition using next generation sequencing (NGS) based gene panel test. Prior to randomization, patients consented to provide solid tumor tissue (de novo or archival) and/or blood-based samples, which were prospectively assessed for homologous recombination repair (HRR) gene alterations (BRCA1, BRCA2, PALB2, ATM, ATR, CHEK2, FANCA, RAD51C, NBN, MLH1, MRE11A, CDK12) using FoundationOne® CDx and/or FoundationOneLiquid® CDx. […] One patient was enrolled based on ctDNA results only. For exploratory analysis, available blood-based samples (not collected in China) were retrospectively tested using FoundationOneLiquid® CDx to determine the status of patients with a prospectively-assessed status of unknown.

[2] = tested on: patients with mCRPC with HRR gene alterations; conditions: male, human, in vivo
[3] = BICR, measurable soft tissue disease
[4] = DDR-deficient population, overall
[5] = Non-BRCAm HRRm incl. 4 patients without HRR gene mutations (N = 129 vs 115)

CNC(=O)c1ccc(N2C(=S)N(c3ccc(C#N)c(C(F)(F)F)c3)C(=O)C2(C)C)cc1F [Placebo + Enzalutamide]
CR rate [1, 3]: 18.5%
PD rate [1, 3]: 20.0%
PR rate [1, 3]: 21.5%
rPFS events by BICR ([1]; BRCA1/2 mutations subgroup): 54 events
rPFS, Number of events ([1]; BRCAm (N = 71 vs 84)): 54 (64) n (%)
Median PFS2 ([1]; DDR-deficient population): 28.1 months
Median investigator-assessed rPFS ([1]; DDR-deficient population): 16.9 months
Median time to use of cytotoxic chemotherapy ([1]; DDR-deficient population): NE/NR
PFS2 events ([1]; DDR-deficient population): 61 events
PSA response rate (decline from baseline PSA by at least 50%, confirmed) ([1]; DDR-deficient population): 63.1%
Time to cytotoxic chemotherapy, events ([1]; DDR-deficient population): 65 events
Median rPFS by BICR [1, 4]: 13.8 months
rPFS events by BICR [1, 4]: 104 events
Median OS ([1]; DDR-deficient population, interim): 33.7 months
rPFS, Median months (95% CI) [1, 5]: 16.7 (13.8, 27.7) months
rPFS, Number of events [1, 5]: 50 (43) n (%)
rPFS by BICR, Median ([1]; gene subgroup: ATM Cluster): 27.7 mo
rPFS by BICR, Median ([1]; gene subgroup: All HRR-deficient): 13.8 mo
rPFS by BICR, Median ([1]; gene subgroup: BRCA Cluster): 11.0 mo
rPFS by BICR, Median ([1]; gene subgroup: CDK12 Cluster): 13.8 mo
rPFS by BICR, Median ([1]; gene subgroup: Only ATM): 27.7 mo
rPFS by BICR, Median ([1]; gene subgroup: Only BRCA1): 11.7 mo
rPFS by BICR, Median ([1]; gene subgroup: Only BRCA2): 11.0 mo
rPFS by BICR, Median ([1]; gene subgroup: Only CDK12): 13.8 mo
rPFS by BICR, Median ([1]; gene subgroup: Only PALB2): 8.6 mo
rPFS by BICR, Median ([1]; gene subgroup: PALB2 Cluster): 8.3 mo
patients who had died ([1]; interim OS analysis, 24% maturity overall): 26.6%
OS events (deaths) ([1]; interim OS analysis, 96 deaths): 53 events
Median OS (printed: Median rPFS) ([1]; non-BRCA1/2 mutations subgroup): 33.7 months
rPFS events by BICR ([1]; non-BRCA1/2 mutations subgroup): 50 events
Median rPFS by BICR ([1]; non-BRCA1/2 mutations subgroup, N=240): 16.7 months
Objective response rate by BICR (RECIST 1.1) ([1]; patients with measurable soft tissue disease at baseline): 40.0%
Patients with Grade 3 or higher TRAEs [2]: 28 (14) n (%)
Patients with any TRAEs [2]: 144 (72.4) n (%)
